Entries after “also recorded” stand apart in the source; their conditions may differ. Where no end group is shown, it is not given here. [ ]: non-standard residue; d: D form. pT = C[C@@H](OP(=O)(O)O)[C@H](N)C(=O)O
Key:
PR(CDE) = biological target: T1, PR(CDE) (Homo sapiens, UniProt P06401); assay: GST-PR(CDE) pull-down of in vitro translated EDDF1 or SRC-1; format: binding; conditions: in vitro assays (data not shown)
T1 construct: PR(CDE) (aa 456-933) regions into pGEX4T2 for GST fusion protein expression; made in house; host or cells: GST fusion from E. coli BL21; EDDF1 / SRC-1 by coupled in vitro transcription/translation (TNT Quick, Promega)
T1 sequence (P06401 456-933): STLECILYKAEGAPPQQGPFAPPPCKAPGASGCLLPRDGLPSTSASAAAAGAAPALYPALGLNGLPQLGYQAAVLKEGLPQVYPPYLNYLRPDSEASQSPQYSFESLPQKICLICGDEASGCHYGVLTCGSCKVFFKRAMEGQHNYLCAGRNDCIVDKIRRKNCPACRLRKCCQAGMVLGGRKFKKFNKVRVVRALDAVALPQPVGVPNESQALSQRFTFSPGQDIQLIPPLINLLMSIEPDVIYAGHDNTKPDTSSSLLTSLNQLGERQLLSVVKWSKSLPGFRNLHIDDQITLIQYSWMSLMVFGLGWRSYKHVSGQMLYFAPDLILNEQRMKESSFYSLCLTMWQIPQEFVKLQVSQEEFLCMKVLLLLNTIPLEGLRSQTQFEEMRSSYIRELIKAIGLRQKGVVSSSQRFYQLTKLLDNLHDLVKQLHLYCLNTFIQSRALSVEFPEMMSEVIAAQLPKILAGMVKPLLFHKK

PR B = biological target: T2, PR B (Homo sapiens, UniProt P06401); assay: Nuclear receptor transactivation assay (MMTV-luciferase reporter); format: cell-based; conditions: HEK 293 cells, 24 h
T2 sequence (P06401 1-933): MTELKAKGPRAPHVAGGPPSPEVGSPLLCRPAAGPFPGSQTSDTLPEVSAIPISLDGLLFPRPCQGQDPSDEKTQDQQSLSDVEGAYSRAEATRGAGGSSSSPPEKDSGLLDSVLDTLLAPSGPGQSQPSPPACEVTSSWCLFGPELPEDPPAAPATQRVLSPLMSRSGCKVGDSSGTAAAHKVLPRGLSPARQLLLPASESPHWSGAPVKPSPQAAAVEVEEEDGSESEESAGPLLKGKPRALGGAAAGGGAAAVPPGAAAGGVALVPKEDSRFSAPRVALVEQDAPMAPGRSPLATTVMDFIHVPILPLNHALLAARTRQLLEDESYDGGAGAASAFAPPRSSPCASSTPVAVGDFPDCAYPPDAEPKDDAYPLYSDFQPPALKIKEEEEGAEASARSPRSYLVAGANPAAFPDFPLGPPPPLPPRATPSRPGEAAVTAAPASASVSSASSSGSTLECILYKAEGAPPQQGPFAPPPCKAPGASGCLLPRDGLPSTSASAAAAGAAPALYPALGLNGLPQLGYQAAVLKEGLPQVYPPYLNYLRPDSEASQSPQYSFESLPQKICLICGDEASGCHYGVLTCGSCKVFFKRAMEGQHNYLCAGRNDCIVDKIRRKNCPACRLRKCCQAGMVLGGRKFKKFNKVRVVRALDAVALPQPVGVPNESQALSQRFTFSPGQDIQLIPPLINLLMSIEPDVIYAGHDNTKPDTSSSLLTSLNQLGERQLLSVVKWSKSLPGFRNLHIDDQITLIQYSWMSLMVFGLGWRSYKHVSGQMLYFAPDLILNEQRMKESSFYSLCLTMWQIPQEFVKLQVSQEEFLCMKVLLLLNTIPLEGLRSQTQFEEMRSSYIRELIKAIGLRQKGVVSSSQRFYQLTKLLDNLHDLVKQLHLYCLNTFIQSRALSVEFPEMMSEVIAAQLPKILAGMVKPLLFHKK
Protocol: (D) Effect of EDD on response to the synthetic progestin ORG2058. HEK 293 cells were transfected for reporter assay along with a transfection control plasmid (pRL-TK). Cells were harvested for luciferase assay following 24 h treatment with increasing concentrations of ORG2058.
HEK 293 or COS7 cells were plated in 6-well plates (2×10^5 cells/well) and the medium changed to 2% charcoal-stripped FCS the following day. Transfection was carried out using 3-4 μl Fugene 6 Reagent (Roche) with 1-2 μg DNA comprised of 90 ng receptor expression vector, 450 ng luciferase reporter vector and 1.2 μg EDD, EDDM or SRC-1 cDNAs in either pRcCMV or pSG5, or empty vector, and 200 ng GFP expression vector pGFP20. […] In some experiments cell number was monitored using the CellTiter96® Proliferation Assay (Promega Corp., Madison, USA). Cells in 6-well plates were analysed for GFP expression by fluorescence microscopy to determine transfection efficiency and also used for preparation of protein lysates so that protein expression levels of various constructs could be compared. […] In some experiments pRSV-β-gal or pRL-TK (Promega Corp., Madison, USA) vectors were transfected in place of pGFP20 and transfection efficiency monitored by assaying for β-galactosidase or Renilla luciferase activity respectively.

BRCA2-chk2 interaction = assay: chk2 immunoprecipitation, western blot for BRCA2, from MCF-7 nuclear extracts after DNA damaging agents; format: cell-based, human; conditions: phleomycin or hydroxyurea
Excerpt: (§1) (B) Interactions between EDD, BRCA2 and chk2 are modified in response to DNA damaging agents. Nuclear extracts from MCF-7 cells that had been cultured in the presence of the radiomimetic phleomycin or the UV mimic hydroxyurea (HU), or from control MCF-7 cells, were subjected to immunoprecipitation with polyclonal chk2 antibody (N17). Following precipitation of immune complexes and extensive washing, bound proteins were separated by SDS-PAGE and western blotted for EDD, BRCA2 or chk2.
(§2) MCF-7 cells were incubated in RPMI containing 0.5% foetal bovine serum for 18 h before addition of phleomycin (Cayla, France) at 100 μg/ml, hydroxyurea (Calbiochem, CA, USA) at 2 mM or PBS vehicle, for 6 h. Cells were harvested for total protein or nuclear protein extracts as described above.

EDD-CIB interaction = assay: GST-CIB pull-down of EDD from MCF-7 nuclear extracts after DNA damaging agents; format: cell-based, human
Protocol: (D) Interaction of EDD and CIB in HEK 293 and MCF-7 cells. Left, HEK 293 cells overexpressing mutant EDD were transfected with a plasmid encoding Flag-tagged CIB or empty vector (vec). Extracts from these cells were subjected to immunoprecipitation using anti-FLAG Ab M2. Right, nuclear extracts prepared from MCF-7 cells following treatment with DNA damage agents phleomycin (Phleo) or hydroxyurea (HU) were incubated with either GST or GST-CIB fusion protein bound to glutathione-Sepharose beads. Bound proteins from both procedures were analysed by SDS-PAGE and western blotted for EDD and amounts bound are indicated as percentages relative to input.
For GST fusion protein pull-down of endogenous or recombinant EDD from cell lysates, 0.5 to 1 mg total protein was incubated with 5 μg GST or GST fusion protein bound to glutathione beads for 1-2 h at 4° C. Beads were washed extensively in 1% Triton X-100 lysis buffer and bound proteins resolved by SDS-PAGE and detected by immunoblotting with EDD antisera (Callaghan et al, Oncogene 17, 3479-3491, 1998). For immunoprecipitation, 10 μl importin α5 antisera (Peter Palese, Mount Sinai School of Medicine) was incubated with 0.5 to 1 mg cell lysate (4° C. for 1 h). Antibody conjugates were captured on protein A sepharose beads (4° C. for 1 h) and washed extensively in lysis buffer. […]

EDD-chk2 interaction = assay: chk2 immunoprecipitation / GSTchk2-N pull-down of EDD from MCF-7 nuclear extracts after DNA damaging agents; format: cell-based, human; conditions: for amount of EDD associating with chk2: MCF-7 nuclear extracts, phleomycin 100 μg/ml or hydroxyurea 2 mM
Protocol: Nuclear extracts from MCF-7 cells that had been cultured in the presence of the radiomimetic phleomycin (100 μg per ml) or from control MCF-7 cells were immunoprecipitated with polyclonal CHK2 antibody (N17) or incubated with goat IgG as a negative control. Following precipitation of immune complexes and extensive washing, bound proteins were separated by SDS-PAGE and western blofted for EDD or CHK2.
(C) Nuclear extracts from MCF-7 cells that had been cultured in the presence of phleomycin (100 μg per ml) or from control MCF-7 cells were incubated with GSTCHK2-N or with GST alone bound to glutathione-Sepharose beads. Bound proteins were separated by SDS-PAGE and immunoblotted for EDD and GST.
as §1, §2

chk2 FHA domain = biological target: T3, chk2 FHA domain (Homo sapiens, UniProt O96017); assay: GSTchk2-N pull-down of in vitro translated EDD in presence of FHA-binding phosphopeptide; conditions: pre-incubation of GSTchk2-N fusion protein with peptide
T3 construct: made in house; host or cells: GST fusion from E. coli BL21; EDDF5 by coupled in vitro transcription/translation (TNT Quick, Promega)
T3 sequence (O96017 1-225): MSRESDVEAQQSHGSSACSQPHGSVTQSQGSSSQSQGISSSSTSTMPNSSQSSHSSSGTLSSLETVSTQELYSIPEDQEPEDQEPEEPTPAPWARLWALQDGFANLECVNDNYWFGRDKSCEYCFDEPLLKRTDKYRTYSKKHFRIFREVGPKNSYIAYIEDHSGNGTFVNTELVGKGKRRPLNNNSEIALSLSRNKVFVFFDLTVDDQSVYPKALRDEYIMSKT
Protocol: (D) The phosphopeptide-binding interface of the chk2 FHA domain is required for EDD binding. In vitro translated ^35S-labelled EDD derivative EDDF5 (aa 889-2799) was incubated with GSTchk2-N or GSTchk2-N derivatives containing R117A or I157T substitutions, or with GST alone bound to glutathione-Sepharose beads. The incubations with GSTchk2-N or GSTchk2-N(I157T) were carried out in the presence or absence of an FHA-binding phosphopeptide at 0, 80 or 150 μM. Bound EDD was detected by SDS-PAGE and autoradiography.
GST-tagged fusion proteins were prepared from E. coli strain BL21 according to established protocols (Pharmacia Protocol Handbook). Soluble fusion proteins were bound to glutathione agarose and quantitated via Coomassie blue staining against protein standards. 35S-labelled EDD protein and mutants or SRC-1 were synthesised in a coupled in vitro transcription/translation system (TNT Quick, Promega) and 10-20 μl reaction mixture was diluted in 1% Triton X-100 lysis buffer (Callaghan et al, Oncogene 17, 3479-3491, 1998) and incubated with 5 μg of GST, GST-importin α5, GST-PR(CDE) or GST-CIB coupled to glutathione agarose beads at 4° C. for 2 h. Beads were collected by centrifugation, washed extensively in lysis buffer and resuspended in SDS-PAGE sample buffer. After boiling, bound protein was visualised following SDS-PAGE and autoradiography. […]

CCC1CC2C3CCC4=CC(=O)CCC4C3CCC2(C)C1C(=O)CO (centres unmarked) [ORG2058]
effect of PR ligand on interactions between PR(CDE) and SRC-1 or EDDF1 (PR(CDE)): not affected | ORG2058 concentration at which that maximal response was exceeded (PR B; with EDD overexpression): 100 pM | ORG2058 concentration giving maximal response (luciferase activity) (PR B; without EDD transfection): 10 nM

phleomycin
amount of BRCA2 associated with chk2 (BRCA2-chk2 interaction): no effect on the amount of BRCA2 associated with chk2 | EDD protein levels (EDD-CIB interaction; MCF-7 cells after treatment): unchanged | association between EDD and CIB (EDD-CIB interaction; MCF-7 cells, phleomycin 100 μg/ml 6 h, vs untreated or hydroxyurea-treated cells): significantly less association between EDD and CIB; also recorded: decrease in the amount of associating EDD | mobility and levels of EDD protein (EDD-chk2 interaction; MCF-7 nuclear extracts after treatment): no change in either the mobility or levels of EDD protein | amount of EDD associating with chk2 (EDD-chk2 interaction): considerably reduced; also recorded: diminished; also recorded: Decreased association between EDD and CHK2

NC(=O)NO [hydroxyurea]
amount of BRCA2 associated with chk2 (BRCA2-chk2 interaction): considerably reduced | amount of EDD associating with chk2 (EDD-chk2 interaction): no effect on the association with EDD

RWFDT(P)YLIRR: phosphopeptide that binds strongly to the FHA domain (RWFD[pT]YLIRR)
peptide concentration that abolished binding between EDD and chk2-N (chk2 FHA domain): greater than 50 μM
